Measurements from PMC9090415, “Discovery of small molecule inhibitors of Plasmodium falciparum apicoplast DNA polymerase” (Journal of Enzyme Inhibition and Medicinal Chemistry, 2022).

Target: P. falciparum apicoplast DNA polymerase (Pf-apPOL) (Plasmodium falciparum, UniProt Q8ILY1)
Assay: Fluorescence-based high-throughput DNA polymerase assay (molecular beacon), primary screen and dose-response
Type: biochemical
Method: The HT assay employs a molecular beacon, a stem-loop DNA template with a Cy3 dye and the Black Hole Quencher on the 3′ and 5′ ends of the DNA, respectively. Pf-apPOL concentration is based on a calculated absorptivity of ε280 = 56750 M^−1 cm^−1. Reactions were carried out at 25 °C, using Corning 3575 […] (well-volume, 20 µL). Assays testing for compound inhibition composed of reaction buffer (pH 7.9 in 50 mM potassium acetate, 20 mM Tris-acetate and 10 mM magnesium acetate), Pf-apPOL (20 nM), DNA substrate (20 nM), dNTPs (6 µM), and compound (10 µM in DMSO). The DNA and nucleotide substrates (dNTPs) were at concentrations of 20 nM and 6 µM, respectively, in the assay. Pf-apPOL was incubated in the reaction buffer with dNTPs and the compound of interest (10 µM, in the assay) at 25 °C for 10 min. The DNA substrate was then added and the reaction was allowed to proceed for 90 min at 25 °C.
Each assay plate contained 16 negative controls (no Pf-apPOL, DMSO present) and 16 positive controls (Pf-apPOL present, no DMSO). The fluorescence of each well was determined using a BioTek Synergy Neo fluorescence plate reader using excitation and emission wavelengths of 555 and 570 nm, respectively.
In the above, Min is the average of fluorescence emission of the negative controls (substrate only), Max the average fluorescence emission from the positive controls (enzyme + substrate), and Test the emission from the assays in the presence of compounds (enzyme + compound + substrates). […] […] The IC50 of each compound was determined using Equation (2): (2) IC50= Vmax/(1+ (I/IC50)^n)
In the above, n measures cooperativity, with n > 1 indicating synergistic binding of more than a single molecule of the compound.
To identify apPOL inhibitors we utilised our previously developed high-throughput DNA polymerase assay. The HT assay is based on a molecular beacon DNA template that forms a stem-loop with a Cy3 dye and the Black Hole Quencher on the 3′ and 5′ ends of the DNA, respectively. DNA polymerase activity extends an annealed primer through the stem region, displacing the fluorophore from the quencher, thereby increasing its fluorescence (Figure 1(A)). The assay accurately recapitulates the kinetic behaviour of apPOL, as measured through more conventional low-throughput gel-based assays. The Z′ factor for the assay described here was 0.9 across all plates (data not shown).
Figure 1. High-throughput screening. (A) The fluorescent-based DNA polymerase assay used to screen the compound libraries. The DNA template strand is a hairpin loop with a primer annealed to the loop. The 3’ end of the primer is 11 bases away from the 6 bp duplex. Strand displacement activity of the DNA polymerase separates the Cy3 dye from the Black hole quencher leading to an increase in fluorescent signal. (B) The high-throughput assay workflow. The DNA polymerase is incubated with […] compound for 10 min prior to addition of the hairpin substrate. The reaction is quenched at 3 different time points and the fluorescent signal is measured and % inhibition is determined using the provided equation.

Sequence of P. falciparum apicoplast DNA polymerase (Pf-apPOL) (Q8ILY1 entry or part of it): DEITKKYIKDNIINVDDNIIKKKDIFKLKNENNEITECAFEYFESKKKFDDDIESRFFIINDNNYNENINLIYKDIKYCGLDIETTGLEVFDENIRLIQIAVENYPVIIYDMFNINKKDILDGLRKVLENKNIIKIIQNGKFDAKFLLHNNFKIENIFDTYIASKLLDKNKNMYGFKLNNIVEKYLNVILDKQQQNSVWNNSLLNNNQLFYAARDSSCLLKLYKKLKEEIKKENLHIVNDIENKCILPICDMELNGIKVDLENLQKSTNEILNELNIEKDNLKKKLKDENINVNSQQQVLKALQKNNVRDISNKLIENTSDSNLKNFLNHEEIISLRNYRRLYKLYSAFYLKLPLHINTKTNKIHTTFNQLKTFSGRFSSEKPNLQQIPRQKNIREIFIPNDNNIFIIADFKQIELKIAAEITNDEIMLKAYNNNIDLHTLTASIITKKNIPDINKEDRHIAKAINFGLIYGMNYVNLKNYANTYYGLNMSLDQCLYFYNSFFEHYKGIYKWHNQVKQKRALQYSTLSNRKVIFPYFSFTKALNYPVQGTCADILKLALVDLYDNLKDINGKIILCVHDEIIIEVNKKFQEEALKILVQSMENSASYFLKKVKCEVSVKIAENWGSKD

Structure (SMILES): Cc1ccc(CNC(=O)c2cnn3c(O)cc(CSc4ccc(Cl)cc4)nc23)cc1 [Molecule 99, Cc1ccc(cc1)CNC(=O)c1cnn2c1nc(CSc1ccc(cc1)Cl)cc2O]
- DNA Pol ('DNA Pol' of the 186 hits list (screen value); 90 min, 10 µM): 67
- % inhibition Apo pol 10' (DRC-1; 10'; conc 2.5): 17.7402%
- % inhibition Apo pol 10' (DRC-1; 10'; conc 5): 14.3%
- % inhibition Apo pol 10' (DRC-1; 10'; conc 10): 59.9515%
- % inhibition Apo pol 10' (DRC-1; 10'; conc 20): 87.9776%
- % inhibition Apo pol 10' (DRC-1; 10'; conc 40): 95.4401%
- % inhibition Apo pol 10' (DRC-1; 10'; conc 80): 98.3006%
- % inhibition Apol 90' (DRC-1; 90'; conc 2.5): 16.0319%
- % inhibition Apol 90' (DRC-1; 90'; conc 5): 10.3916%
- % inhibition Apol 90' (DRC-1; 90'; conc 10): 57.1077%
- % inhibition Apol 90' (DRC-1; 90'; conc 20): 85.3091%
- % inhibition Apol 90' (DRC-1; 90'; conc 40): 92.0772%
- % inhibition Apol 90' (DRC-1; 90'; conc 80): 96.0616%
- % inhibition apPOL 180' (DRC-1; 180'; conc 2.5): 7.151%
- % inhibition apPOL 180' (DRC-1; 180'; conc 5): 1.596%
- % inhibition apPOL 180' (DRC-1; 180'; conc 10): 45.1863%
- % inhibition apPOL 180' (DRC-1; 180'; conc 20): 80.2247%
- % inhibition apPOL 180' (DRC-1; 180'; conc 40): 89.0926%
- % inhibition apPOL 180' (DRC-1; 180'; conc 80): 94.6304%
- % inhibition Apo pol 5' (DRC-2; 5'; conc 2.5): 29%
- % inhibition Apo pol 5' (DRC-2; 5'; conc 5): 42%
- % inhibition Apo pol 5' (DRC-2; 5'; conc 10): 44%
- % inhibition Apo pol 5' (DRC-2; 5'; conc 20): 58%
- % inhibition Apo pol 5' (DRC-2; 5'; conc 40): 67%
- % inhibition Apo pol 5' (DRC-2; 5'; conc 80): 68%
- % inhibition Apo pol 5' (DRC-2; 5'; concentration 80): 68%
- % inhibition Apol 40' (DRC-2; 40'; conc 2.5): 32%
- % inhibition Apol 40' (DRC-2; 40'; conc 5): 49%
- % inhibition Apol 40' (DRC-2; 40'; conc 10): 50%
- % inhibition Apol 40' (DRC-2; 40'; conc 20): 68%
- % inhibition Apol 40' (DRC-2; 40'; conc 40): 78%
- % inhibition Apol 40' (DRC-2; 40'; conc 80): 81%
- % inhibition Apol 40' (DRC-2; 40'; concentration 5): 49%
- % inhibition Apol 40' (DRC-2; 40'; concentration 20): 68%
- % inhibition ApPOL 90' (DRC-2; 90'; conc 2.5): 31%
- % inhibition ApPOL 90' (DRC-2; 90'; conc 5): 49%
- % inhibition ApPOL 90' (DRC-2; 90'; conc 10): 49%
- % inhibition ApPOL 90' (DRC-2; 90'; conc 20): 69%
- % inhibition ApPOL 90' (DRC-2; 90'; conc 40): 80%
- % inhibition ApPOL 90' (DRC-2; 90'; conc 80): 84%
- % inhibition ApPOL 90' (DRC-2; 90'; concentration 5): 49%
- % inhibition ApPOL 90' (DRC-2; 90'; concentration 10): 49%
- % inhibition ApPOL 90' (DRC-2; 90'; concentration 40): 80%
- % inhibition apPOL 180' (DRC-2; 180'; conc 2.5): 25%
- % inhibition apPOL 180' (DRC-2; 180'; conc 5): 40%
- % inhibition apPOL 180' (DRC-2; 180'; conc 10): 41%
- % inhibition apPOL 180' (DRC-2; 180'; conc 20): 66%
- % inhibition apPOL 180' (DRC-2; 180'; conc 40): 80%
- % inhibition apPOL 180' (DRC-2; 180'; conc 80): 86%
- % inhibition apPOL 180' (DRC-2; 180'; concentration 40): 80%
- DNA Pol (primary screen value, "DNA Pol"; 90 min, 10 µM): 67

Structure (SMILES): CN(C)C=C1SCc2ccccc2C1=O [Molecule 77, CN(C=C1SCc2c(C1=O)cccc2)C]
- DNA Pol ('DNA Pol'; screening value, unit not given; 90 min, 10 µM): 85
- % inhibition Apo pol 10' (DRC-1; 10'; concentration 2.5): 11.5763%
- % inhibition Apo pol 10' (DRC-1; 10'; concentration 5): 16.7667%
- % inhibition Apo pol 10' (DRC-1; 10'; concentration 10): 31.6418%
- % inhibition Apo pol 10' (DRC-1; 10'; concentration 20): 51.9221%
- % inhibition Apo pol 10' (DRC-1; 10'; concentration 40): 56.5642%
- % inhibition Apo pol 10' (DRC-1; 10'; concentration 80): 84.5209%
- % inhibition Apol 90' (DRC-1; 90'; concentration 2.5): 2.782%
- % inhibition Apol 90' (DRC-1; 90'; concentration 5): 3.396%
- % inhibition Apol 90' (DRC-1; 90'; concentration 10): 10.9684%
- % inhibition Apol 90' (DRC-1; 90'; concentration 20): 24.755%
- % inhibition Apol 90' (DRC-1; 90'; concentration 40): 26.7268%
- % inhibition Apol 90' (DRC-1; 90'; concentration 80): 62.9199%
- % inhibition apPOL 180' (DRC-1; 180'; concentration 2.5): -2.727%
- % inhibition apPOL 180' (DRC-1; 180'; concentration 5): -5.416%
- % inhibition apPOL 180' (DRC-1; 180'; concentration 10): 0.7299%
- % inhibition apPOL 180' (DRC-1; 180'; concentration 20): 8.887%
- % inhibition apPOL 180' (DRC-1; 180'; concentration 40): 10.8248%
- % inhibition apPOL 180' (DRC-1; 180'; concentration 80): 43.5104%
- % inhibition Apo pol 5' (DRC-2, 5', concentration 2.5): 2.65%
- % inhibition Apo pol 5' (DRC-2, 5', concentration 5): 5.48%
- % inhibition Apo pol 5' (DRC-2, 5', concentration 10): 20%
- % inhibition Apo pol 5' (DRC-2, 5', concentration 20): 33%
- % inhibition Apo pol 5' (DRC-2, 5', concentration 40): 41%
- % inhibition Apo pol 5' (DRC-2, 5', concentration 80): 52%
- % inhibition Apol 40' (DRC-2, 40', concentration 2.5): 2%
- % inhibition Apol 40' (DRC-2, 40', concentration 5): 4%
- % inhibition Apol 40' (DRC-2, 40', concentration 10): 13%
- % inhibition Apol 40' (DRC-2, 40', concentration 20): 26%
- % inhibition Apol 40' (DRC-2, 40', concentration 40): 34%
- % inhibition Apol 40' (DRC-2, 40', concentration 80): 57%
- % inhibition ApPOL 90' (DRC-2, 90', concentration 2.5): 0.807%
- % inhibition ApPOL 90' (DRC-2, 90', concentration 5): 1%
- % inhibition ApPOL 90' (DRC-2, 90', concentration 10): 8%
- % inhibition ApPOL 90' (DRC-2, 90', concentration 20): 18%
- % inhibition ApPOL 90' (DRC-2, 90', concentration 40): 26%
- % inhibition ApPOL 90' (DRC-2, 90', concentration 80): 54%
- % inhibition apPOL 180' (DRC-2, 180', concentration 2.5): -3%
- % inhibition apPOL 180' (DRC-2, 180', concentration 5): -3.45%
- % inhibition apPOL 180' (DRC-2, 180', concentration 10): 0.193%
- % inhibition apPOL 180' (DRC-2, 180', concentration 20): 7.49%
- % inhibition apPOL 180' (DRC-2, 180', concentration 40): 14%
- % inhibition apPOL 180' (DRC-2, 180', concentration 80): 45%
- % inhibition Apol 40' (conc 20 (unit not given); 40'; DRC-2): 26%
- % inhibition ApPOL 90' (conc 40 (unit not given); 90'; DRC-2): 26%
- DNA Pol (primary screen hit value, DNA Pol (186 hits); 90 min, 10 µM): 85

Structure (SMILES): Cc1nc2c(oc3nc(-c4ccoc4)c4c(c32)CC(C)(C)OC4)c(-c2ccccc2)c1C(=O)O [Molecule 93]
- IC50 (supplemental file 2, sheet IC50 nontoxic compounds; Pf-apPOL): 6.29 µM
